Results published in PMC9295807 (2022).

Assays:
Assay in all cases: in-line probing
[1] = system: 92 PRT (RNA, riboswitch) GGAAUCAAACAUCUCUUGUAUAAGCUCGUUAAUUUGGAAUGAGCGUAUCUACAGGCAACCGUAAAUUGCCCCAGGCUACAAGAGGCCAGACAAG; conditions: 100 mM K+, 20 mM Mg2+
[2] = system: 92 allB (RNA, riboswitch) GGCAGAAUAAGCUCUUGUAUAAGCUCAUUAAUCCGGUUUGAGCGUUUCGACCAGGCGACCGUAAAUUGCCCCAGGCUACAAGAGGUGCAGGAAA; conditions: 100 mM K+, 20 mM Mg2+, 100 mM Tris-HCl pH 8.3, room temperature, ~40 h
[3] = system: 94 nuc (RNA, riboswitch) GGAAAAAAAAUUAUUUUUCGUAUAUCCUUAAUGAUAUGGUUUAAGGGCAAUACAUAGAAACCACAAAUUUCUUACUGCGAAAAAUAUGCUUCUUUA; conditions: 100 mM K+, 20 mM Mg2+; 100 mM Tris-HCl pH 8.3, room temperature, ~40 h

Nc1nc2[nH]cnc2c(=O)[nH]1
KD [1]: < 8.3 nM
binding ([2]; 100 µM compound): no

Nc1nc2c(ncn2[C@H]2C[C@H](O)[C@@H](CO)O2)c(=O)[nH]1
KD [3]: ~ 1.5 μM

O=c1[nH]c(=O)c2[nH]cnc2[nH]1
binding ([1]; 100 mM Tris-HCl pH 8.3, room temperature, ~40 h, 100 µM compound): no
KD [2]: ~ 36.5 µM
